Our source for the CC50 values is article PMC6792352, “Limited Chemical Structural Diversity Found to Modulate Thyroid Hormone Receptor in the Tox21 Chemical Library” (Environmental Health Perspectives, 2019).

This data set relates to GH3-TRE-Luc cell line. The note with it: read-out: AC50 (uM) modified / 1000, viability, 1 nM T3 present, 24 h.

The structures appear in SMILES notation. Structures can show the parent of a compound that is named as a salt. Where two headings read alike, the source gives them in different places.

On to `COC(=O)C1=C(C)NC(C)=C(C(=O)OCCN(C)Cc2ccccc2)C1c1cccc([N+](=O)[O-])c1` (stereo not drawn) [Nicardipine], for which the CC50 (Tox21_110001=Tox21_110211) amounted to 7.48 µM and the CC50 (Tox21_110001=Tox21_301832) was 22.2 µM.
For the molecule `CO[C@@H]1[C@H](OC(=O)/C=C/C=C/C=C/C=C/C(=O)O)CC[C@]2(CO2)[C@H]1[C@@]1(C)O[C@@H]1CC=C(C)C` [Fumagillin], the CC50 (Tox21_110001=Tox21_112066) was found to be 42.9 µM.
Take `CCCCCCCCCCn1cc[n+](C)c1` [1-Decyl-3-methylimidazolium bromide]: the CC50 (Tox21_110001=Tox21_202622) was determined as 18 µM.
With `CCCCCCCC[n+]1ccn(C)c1` [1-Methyl-3-octylimidazolium trifluoromethanesulfonate], the CC50 (Tox21_110001=Tox21_200708) is 75.9 µM.
Take `CN(C)CCCN1c2ccccc2CCc2ccc(Cl)cc21` [Clomipramine]: the CC50 (Tox21_110001=Tox21_110117) stood at 8.96 µM.
As to `Nc1ccn([C@@H]2O[C@H](CO)[C@@H](O)[C@@H]2O)c(=O)n1` [Cytarabine], the CC50 (Tox21_110001=Tox21_111203) was found to be 0.708 µM and the CC50 (Tox21_110001=Tox21_301971) is 0.237 µM.
As for `O=C(NCC1CCCCN1)c1cc(OCC(F)(F)F)ccc1OCC(F)(F)F` (stereo not drawn) [Flecainide], the CC50 (Tox21_110001=Tox21_110151) was found to be 36.6 µM.
For `C=C[C@H]1C[N@@]2CC[C@H]1C[C@H]2[C@H](O)c1ccnc2ccc(OC)cc12` [Quinine hydrochloride dihydrate], the CC50 (Tox21_110001=Tox21_303565) amounted to 50.6 µM.
As to `CCN1/C(=C/C=C/C=C/c2sc3ccccc3[n+]2CC)Sc2ccccc21` [Dithiazanine chloride], the CC50 (Tox21_110001=Tox21_113171) was determined as 7.02 µM.
As to `CCN(CC)C(=S)SSC(=S)N(CC)CC` [Disulfiram], the CC50 was determined as 19.9 µM (Tox21_110001=Tox21_110280), 0.0747 µM (Tox21_110001=Tox21_300403) and 81.5 µM (Tox21_110001=Tox21_400072).
As to `CC(=O)O[C@@]12CO[C@@H]1C[C@H](O)[C@@]1(C)C(=O)[C@H](O)C3=C(C)[C@@H](OC(=O)[C@H](O)[C@@H](NC(=O)OC(C)(C)C)c4ccccc4)C[C@@](O)([C@@H](OC(=O)c4ccccc4)[C@H]21)C3(C)C` [Docetaxel], the CC50 was 0.0619 µM (Tox21_110001=Tox21_112781) and 0.364 µM (Tox21_110001=Tox21_113088).
As for `c1cnc2c(c1)ccc1cccnc12` [1,10-Phenanthroline hydrochloride hydrate], the CC50 (Tox21_110001=Tox21_301286) was determined as 7.25 µM.
On to `[H]/N=C(\N/C(=N/[H])NCCCCCCNC(=N)NC(=N)Nc1ccc(Cl)cc1)Nc1ccc(Cl)cc1` [Chlorhexidine], for which the CC50 stood at 12.4 µM (Tox21_110001=Tox21_110325), 7.06 µM (Tox21_110001=Tox21_201404) and 6.48 µM (Tox21_110001=Tox21_303445).
Take `c1cc(C(c2ccc(OCC3CO3)cc2)C(c2ccc(OCC3CO3)cc2)c2ccc(OCC3CO3)cc2)ccc1OCC1CO1` (stereo not drawn) [1,1,2,2-(4,4',4'',4'''-Tetraglycidyloxyphenyl)ethane]: the CC50 (Tox21_110001=Tox21_202150) is 25.2 µM.
Consider `CCN(CC)C(=S)S` [Sodium diethyldithiocarbamate trihydrate], for which the CC50 (Tox21_110001=Tox21_302812) was determined as 8.88 µM.
For the molecule `O=c1c(-c2ccc(O)cc2)coc2cc(O)cc(O)c12` [Genistein], the CC50 stood at 24.6 µM (Tox21_110001=Tox21_110161), 38.3 µM (Tox21_110001=Tox21_201428) and 57.7 µM (Tox21_110001=Tox21_300585).
With `Nc1ccc(/N=N/c2ccccc2)c(N)n1` [Phenazopyridine hydrochloride], the CC50 by setting is: (Tox21_110001=Tox21_110829) 18.5 µM; (Tox21_110001=Tox21_202153) 45.2 µM; (Tox21_110001=Tox21_302738) 44.8 µM.
On to `Nc1ccc(Nc2ccccc2)cc1` [N-Phenyl-1,4-benzenediamine], for which the CC50 is 42.9 µM (Tox21_110001=Tox21_202144) and 22.6 µM (Tox21_110001=Tox21_300027).
With `CCn1c2ccccc2c2cc(N)ccc21` [3-Amino-9-ethylcarbazole], the CC50 (Tox21_110001=Tox21_303548) stood at 93.2 µM.
With `CC/N=c1\cc2oc3cc(NCC)c(C)cc3c(-c3ccccc3C(=O)OCC)c-2cc1C` [Rhodamine 6G], the CC50 (Tox21_110001=Tox21_201597) worked out at 0.49 µM and the CC50 (Tox21_110001=Tox21_302898) turned out to be 1.44 µM.
Turning to `CCCCCCCCCCCCCC[P+](CCCCCC)(CCCCCC)CCCCCC` [Trihexyltetradecylphosphonium bromide], the CC50 (Tox21_110001=Tox21_200809) is 5.4 µM.
`COc1cccc2c1C(=O)c1c(O)c3c(c(O)c1C2=O)C[C@@](O)(C(=O)CO)C[C@@H]3O[C@H]1C[C@H](N)[C@H](O)[C@H](C)O1` [Adriamycin hydrochloride]: the CC50 reads like this: (Tox21_110001=Tox21_112061) 1.54 µM; (Tox21_110001=Tox21_202483) 0.253 µM.
Regarding `CCCCCCCCCCn1cc[n+](C)c1` [1-Decyl-3-methylimidazolium tetrafluoroborate], the CC50 (Tox21_110001=Tox21_200592) was found to be 13.1 µM.
With `CC/C(=C(\c1ccccc1)c1ccc(OCCN(C)C)cc1)c1ccccc1` [Tamoxifen], the CC50 turned out to be 13.9 µM (Tox21_110001=Tox21_201243) and 8.55 µM (Tox21_110001=Tox21_300539).
As to `CCCCCCCC[n+]1ccn(C)c1` [1-Methyl-3-octylimidazolium bromide], where the note is “Tox21_110001=Tox21_202653”, the CC50 was determined as 31.6 µM.
`CC(C)Nc1ccc(Nc2ccccc2)cc1` [N-Isopropyl-N'-phenyl-p-phenylenediamine]: the CC50 was 13.5 µM (Tox21_110001=Tox21_111169), 36.2 µM (Tox21_110001=Tox21_201424) and 33.4 µM (Tox21_110001=Tox21_303202).
Turning to `CCN(CC)CCCC(C)Nc1ccnc2cc(Cl)ccc12` (stereo not drawn) [Chloroquine bis(phosphate)], the CC50 (Tox21_110001=Tox21_110115) was 19.6 µM.
For `O=c1[nH]cc(F)c(=O)[nH]1` [5-Fluorouracil], the CC50 came to 16.7 µM (Tox21_110001=Tox21_202335) and 30.2 µM (Tox21_110001=Tox21_300112).
In the case of `CC(CN1c2ccccc2Sc2ccccc21)N(C)C` (stereo not drawn) [Promethazine], the CC50 (Tox21_110001=Tox21_110227) was 17.9 µM.
With `CCCCCCCCCCn1cc[n+](C)c1` [1-Decyl-3-methylimidazolium hexafluorophosphate], the CC50 (Tox21_110001=Tox21_202624) amounted to 11.4 µM.
